Reference: the NIST ThermoML archive (doi:10.1021/acs.jced.7b00694)
± gives the expanded uncertainty stated by the source.

Test: xn = mol fraction of the nth substance listed
Details: Gas, Buoyancy - hydrostatic balance with magnetic suspension - one sinker

[HH] [hydrogen] + N#N
Details	mass density [kg/m3]
274.99 K, 14000 kPa, x2 = 0.95	162.308 ± 0.071
274.99 K, 14998 kPa, x2 = 0.5001	91.878 ± 0.046
274.99 K, 15002 kPa, x2 = 0.95	173.076 ± 0.072
274.99 K, 16011 kPa, x2 = 0.95	183.72 ± 0.072
274.99 K, 17006 kPa, x2 = 0.95	194.006 ± 0.072
275 K, 13999 kPa, x2 = 0.9	153.123 ± 0.068
275 K, 15005 kPa, x2 = 0.9	163.298 ± 0.068
275 K, 15997 kPa, x2 = 0.5001	97.397 ± 0.046
275 K, 16004 kPa, x2 = 0.9	173.22 ± 0.069
275 K, 17000 kPa, x2 = 0.5001	102.851 ± 0.046
275 K, 17005 kPa, x2 = 0.9	182.969 ± 0.069
275 K, 17996 kPa, x2 = 0.5001	108.187 ± 0.047
275 K, 18001 kPa, x2 = 0.95	204.074 ± 0.072
275 K, 18013 kPa, x2 = 0.9	192.591 ± 0.069
275 K, 19000 kPa, x2 = 0.5001	113.476 ± 0.047
275 K, 19012 kPa, x2 = 0.9	201.918 ± 0.07
275 K, 19017 kPa, x2 = 0.95	214.131 ± 0.073
275 K, 19574 kPa, x2 = 0.5001	116.461 ± 0.051
275 K, 19891 kPa, x2 = 0.9	209.964 ± 0.073
275 K, 20152 kPa, x2 = 0.95	225.084 ± 0.077
299.93 K, 997 kPa, x2 = 0.95	10.683 ± 0.059
299.93 K, 998 kPa, x2 = 0.9	10.171 ± 0.056
299.93 K, 1999 kPa, x2 = 0.9	20.375 ± 0.057
299.93 K, 2984 kPa, x2 = 0.9	30.399 ± 0.058
299.93 K, 3997 kPa, x2 = 0.9	40.678 ± 0.058
299.93 K, 4997 kPa, x2 = 0.9	50.784 ± 0.059
299.93 K, 5997 kPa, x2 = 0.9	60.838 ± 0.059
299.93 K, 6998 kPa, x2 = 0.9	70.842 ± 0.059
299.93 K, 7998 kPa, x2 = 0.9	80.755 ± 0.06
299.93 K, 8998 kPa, x2 = 0.9	90.589 ± 0.061
299.93 K, 9998 kPa, x2 = 0.9	100.316 ± 0.061
299.93 K, 10998 kPa, x2 = 0.9	109.939 ± 0.061
299.93 K, 11999 kPa, x2 = 0.9	119.448 ± 0.062
299.93 K, 12999 kPa, x2 = 0.9	128.823 ± 0.062
299.93 K, 14000 kPa, x2 = 0.9	138.079 ± 0.063
299.93 K, 14998 kPa, x2 = 0.9	147.162 ± 0.063
299.93 K, 16001 kPa, x2 = 0.9	156.149 ± 0.063
299.93 K, 17004 kPa, x2 = 0.9	164.981 ± 0.064
299.93 K, 18004 kPa, x2 = 0.9	173.629 ± 0.064
299.93 K, 19002 kPa, x2 = 0.9	182.11 ± 0.066
299.93 K, 19557 kPa, x2 = 0.9	186.761 ± 0.074
299.94 K, 998 kPa, x2 = 0.5001	5.984 ± 0.038
299.94 K, 1998 kPa, x2 = 0.5001	11.937 ± 0.039
299.94 K, 1998 kPa, x2 = 0.95	21.43 ± 0.06
299.94 K, 2984 kPa, x2 = 0.95	32.013 ± 0.06
299.94 K, 2999 kPa, x2 = 0.5001	17.846 ± 0.039
299.94 K, 3997 kPa, x2 = 0.95	42.862 ± 0.061
299.94 K, 3998 kPa, x2 = 0.5001	23.691 ± 0.039
299.94 K, 4997 kPa, x2 = 0.95	53.549 ± 0.061
299.94 K, 4998 kPa, x2 = 0.5001	29.485 ± 0.04
299.94 K, 5998 kPa, x2 = 0.5001	35.223 ± 0.04
299.94 K, 5998 kPa, x2 = 0.95	64.189 ± 0.062
299.94 K, 6997 kPa, x2 = 0.5001	40.897 ± 0.04
299.94 K, 6999 kPa, x2 = 0.95	74.769 ± 0.062
299.94 K, 7997 kPa, x2 = 0.5001	46.51 ± 0.041
299.94 K, 7999 kPa, x2 = 0.95	85.271 ± 0.063
299.94 K, 8996 kPa, x2 = 0.5001	52.057 ± 0.041
299.94 K, 9000 kPa, x2 = 0.95	95.695 ± 0.063
299.94 K, 9998 kPa, x2 = 0.5001	57.555 ± 0.041
299.94 K, 10000 kPa, x2 = 0.95	106.004 ± 0.064
299.94 K, 10997 kPa, x2 = 0.5001	62.968 ± 0.041
299.94 K, 10999 kPa, x2 = 0.95	116.189 ± 0.064
299.94 K, 11998 kPa, x2 = 0.5001	68.317 ± 0.042
299.94 K, 12000 kPa, x2 = 0.95	126.269 ± 0.065
299.94 K, 12994 kPa, x2 = 0.5001	73.577 ± 0.043
299.94 K, 13002 kPa, x2 = 0.95	136.232 ± 0.065
299.94 K, 13996 kPa, x2 = 0.5001	78.8 ± 0.043
299.94 K, 14000 kPa, x2 = 0.95	146.008 ± 0.066
299.94 K, 14998 kPa, x2 = 0.5001	83.948 ± 0.043
299.94 K, 14999 kPa, x2 = 0.95	155.65 ± 0.066
299.94 K, 15992 kPa, x2 = 0.5001	88.984 ± 0.043
299.94 K, 16000 kPa, x2 = 0.95	165.148 ± 0.066
299.94 K, 16992 kPa, x2 = 0.5001	93.982 ± 0.044
299.94 K, 17005 kPa, x2 = 0.95	174.51 ± 0.067
299.94 K, 17997 kPa, x2 = 0.5001	98.934 ± 0.044
299.94 K, 18000 kPa, x2 = 0.95	183.626 ± 0.067
299.94 K, 18998 kPa, x2 = 0.5001	103.792 ± 0.045
299.94 K, 19003 kPa, x2 = 0.95	192.638 ± 0.068
299.94 K, 19854 kPa, x2 = 0.5001	107.886 ± 0.046
299.94 K, 19889 kPa, x2 = 0.95	200.449 ± 0.075
324.94 K, 12002 kPa, x2 = 0.95	115.15 ± 0.06
324.94 K, 14997 kPa, x2 = 0.95	141.813 ± 0.061
324.94 K, 15998 kPa, x2 = 0.95	150.466 ± 0.062
324.94 K, 16993 kPa, x2 = 0.95	158.937 ± 0.062
324.94 K, 17986 kPa, x2 = 0.95	167.256 ± 0.062
324.94 K, 19001 kPa, x2 = 0.95	175.603 ± 0.063
324.94 K, 19731 kPa, x2 = 0.9	171.908 ± 0.065
324.94 K, 19880 kPa, x2 = 0.95	182.728 ± 0.068
324.95 K, 998 kPa, x2 = 0.5001	5.527 ± 0.036
324.95 K, 998 kPa, x2 = 0.9	9.371 ± 0.053
324.95 K, 998 kPa, x2 = 0.95	9.855 ± 0.055
324.95 K, 1998 kPa, x2 = 0.5001	11.018 ± 0.037
324.95 K, 1998 kPa, x2 = 0.95	19.717 ± 0.055
324.95 K, 1999 kPa, x2 = 0.9	18.75 ± 0.053
324.95 K, 2983 kPa, x2 = 0.9	27.94 ± 0.054
324.95 K, 2984 kPa, x2 = 0.95	29.414 ± 0.056
324.95 K, 2996 kPa, x2 = 0.5001	16.446 ± 0.037
324.95 K, 3997 kPa, x2 = 0.95	39.338 ± 0.057
324.95 K, 3999 kPa, x2 = 0.5001	21.856 ± 0.038
324.95 K, 3999 kPa, x2 = 0.9	37.374 ± 0.054
